Patent US6825230B2, “Spiro and dispiro 1,2,4-trixolane antimalarials” (Medicines for Malaria Venture MMV, priority 2002, dated 2004)
Converted amounts (≈) assume the structure as drawn. Where two headings read alike, the source gives them in different places.

What was measured:
P. berghei ANKA strain [1] = assay: Onset of action and recrudescence experiment, single 100 mg/kg po; format: in vivo, Plasmodium berghei; conditions: single 100 mg/kg po (SSV) on day +3 post-infection; recrudescence = >5% parasitemia; followed up to 60 days; groups of five
Procedure: The onset of drug action was determined after a single fixed dose of 100 mg/kg (SSV vehicle) po to groups of five animals on day +3 post-infection (day 0).
(§1) Moro NMRI male mice (Fu Albino specific pathogen free) weighing 18±2 g were infected intravenously (i.v.) with 2×10^7 P. berghei ANKA strain-infected erythrocytes from donor mice on day 0 of the experiment. From donor mice with circa 30% parasitemia, heparinized blood was taken and diluted in physiological saline to 10^8 parasitized erythrocytes per ml. An aliquot (0.2 ml) of this suspension was injected i.v. into experimental and control groups of mice. […] Throughout the experiments, mice were kept in groups of three or five animals in Makrolon type II cages in an air-conditioned animal room at 22 to 23° C.

P. berghei ANKA strain [2] = assay: Prophylactic activity, single 100 mg/kg po at various times before infection; format: in vivo, Plasmodium berghei
Procedure: as §1
Prophylactic activities of the compounds were compared after administering po single dose of 100 mg/kg to different groups of five animals at various times before infection. All groups including an untreated control group, were then infected at the same time. Parasitemia was determined for each animal on day 3 post-infection, and percent of reduction of the level of parasitemia compared to levels for animals given no drug is determined.

[3] = system: Schistosoma mansoni adult worms (49-day-old); assay: Effect on adult schistosomes (49-day-old) in infected mice; format: in vivo; conditions: single 400 mg/kg per os; for % reduction of adult worms growth at day 49 after per os application of 400 mg/kg, TWR (%): 49-day-old adults, total worm reduction rate; for Adult worms day 49, per os 400 mg/kg, DEAD WORM (%): percentage of dead worm in the liver
Procedure: Mice were infected with 100 Schistosoma mansoni cercariae on day 49 post-treatment. Each group was treated per os with OZ compounds at single doses of 200, 400, and 600 mg/kg. Untreated mice served as the control. All groups were killed 4 weeks after treatment and the liver and intestine were removed and separated. The liver and intestine were compressed and alive male and female worms could be seen and counted.

[4] = system: ANKA strain of P. berghei; assay: Single dose STI in vivo screen in infected mice; parameters: species or system Plasmodium berghei; conditions: for Survival (days) 3 mg/kg SSV po / Activity (%) 3 mg/kg SSV po: single 3 mg/kg po in SSV; for Survival (days) 10 mg/kg SSV po: single 10 mg/kg po in SSV; for Activity (%) 10 mg/kg SSV po: single 10 mg/kg po in standard suspending vehicle (SSV) on day 1 post-infection
[5] = system: chloroquine-resistant K1 strain of P. falciparum; assay: In vitro antimalarial semiautomated microdilution assay ([3H]-hypoxanthine incorporation), K1 strain; format: cell-based, Plasmodium falciparum; conditions: Plasmodium falciparum
Summary of the method: (§2)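 IC50 comes from Logit regression of [3H]-hypoxanthine incorporation data. Intraerythrocytic P. falciparum taken from asynchronous stock cultures is exposed to OZ compounds in a semiautomated microdilution format.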

[6] = system: chloroquine-sensitive NF54 strain of P. falciparum; assay: In vitro antimalarial semiautomated microdilution assay ([3H]-hypoxanthine incorporation), NF54 strain; format: cell-based, Plasmodium falciparum; conditions: Plasmodium falciparum
Summary of the method: as §2

P. berghei ANKA strain [7] = assay: Divided 3x3 mg/kg and 3x1 mg/kg po doses in infected mice; format: in vivo, Plasmodium berghei
Summary of the method: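 Male NMRI mice were infected i.v. with 2×10^7 P. berghei-parasitized erythrocytes on day 0, then dosed orally in SSV vehicle on days 1, 2 and 3 post-infection.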

P. berghei ANKA strain [8] = assay: Divided 3x10 mg/kg vs single 1x30 mg/kg po dose in infected mice; format: in vivo, Plasmodium berghei; conditions: for Survival (days) 3 × 10 mg/kg p.o. SSV / Activity (%) 3 × 10 mg/kg p.o. SSV: 10 mg/kg po on days 1, 2, 3 post-infection
Procedure: as §1
They were administered per os (p.o.) in a total volume of 0.01 ml per gram of mouse. The activity of the compound was determined by a variety of methods outlined in subsequent sections. Survival time was also recorded, and survival to day 30 post-infection was considered to be a cure.
The first experiment conducted consisted of administration of a divided 3×10 mg/kg p.o. dose administered on days 1, 2, and 3 post-infection vs. a single 1×30 mg/kg po dose administered on day 1 post-infection. On day 4 post-infection, blood smears of all animals were prepared and stained with Giemsa. […] Compounds were administered orally in the SSV vehicle.

[9] = system: ANKA strain of Plasmodium berghei; assay: Single dose ED50/ED90/ED99 determination in infected mice; format: in vivo; conditions: single dose po in SSV on day 1 post-infection, parasitemia day 3, nonlinear fitting
Procedure: In the single dose ED50/ED98/ED99 determinations, Moro SPF or NMRI mice (group of three) infected with the ANKA strain of Plasmodium berghei were treated on day one post-infection. […] The SSV consists of 0.5% w/v CMC, 0.5% v/v benzyl alcohol, 0.4% v/v Tween 80, and 0.9% w/v sodium chloride in water. Antimalarial activity was measured by percent reduction in parasitemia on day three post-infection. The ED50/ED90 values were calculated by nonlinear fitting.
The ED50, ED90, and ED99 values were calculated by non-linear fitting with statistical program and were expressed in mg/kg.

[10] = percent reduction in parasitemia on day 3
[11] = 3 × 1 mg/kg p.o. SSV on days 1, 2, 3 post-infection
[12] = 3 × 3 mg/kg p.o. SSV on days 1, 2, 3 post-infection
[13] = 3 × 3 mg/kg p.o. SSV on days 1, 2, 3 post-infection, percent reduction of parasitemia vs control on day 4

| Structure (SMILES) | Time of Recrudescence (P. berghei ANKA strain [1]) [days] | % reduction of adult worms growth at day 49 after per os application of 400 mg/kg, TWR (%) [3] [%] | Adult worms day 49, per os 400 mg/kg, DEAD WORM (%) [3] [%] | Survival (days) 3 mg/kg SSV po [4] [days] | Activity (%) 3 mg/kg SSV po [4, 10] [%] | Survival (days) 10 mg/kg SSV po ([4]; untreated 6-7 days) [days] | Activity (%) 10 mg/kg SSV po [4, 10] [%] | Survival (P. berghei ANKA strain [7]; [11]) [days] | Survival (P. berghei ANKA strain [7]; [12]) [days] | Activity (%) (P. berghei ANKA strain [7]; [13]) | Survival (days) 3 × 10 mg/kg p.o. SSV (P. berghei ANKA strain [8]) [days] | Activity (%) 3 × 10 mg/kg p.o. SSV (P. berghei ANKA strain [8]; parasitemia reduction on day 4) [%] | other results |
| --- | --- | --- | --- | --- | --- | --- | --- | --- | --- | --- | --- | --- | --- |
| CCO[C@H]1O[C@@H]2O[C@@]3(C)CC[C@H]4[C@H](C)CC[C@@H]([C@H]1C)[C@@]24OO3 [Arteether, arteether, reference compound] | 11.4 | – | – | – | – | – | – | – | – | – | – | – | – |
| NCC(=O)NC[C@H]1CC[C@]2(CC1)OO[C@]1(O2)C2CC3CC(C2)CC1C3 [OZ271] | – | 0 | 6 | 8.6 | 99.52 | 8.7 | 99.93 | 8.8 | 16.2 | 99.99 | 27.8 | 100 | Prophylactic Activity (%) 72 h (P. berghei ANKA strain [2]; po, 100 mg/kg): 99.89%; Duration of prophylactic protection (P. berghei ANKA strain [2]; single 100 mg/kg po): 3 days; Prophylactic Activity (%) 24 h (P. berghei ANKA strain [2]; single 100 mg/kg po 24 h before infection, parasitemia reduction on day 3 post-infection): 100%; Prophylactic Activity (%) 48 h (P. berghei ANKA strain [2]; single 100 mg/kg po 48 h before infection, parasitemia reduction on day 3 post-infection): 99.98%; Prophylactic Activity (%) 0 h (P. berghei ANKA strain [2]; single 100 mg/kg po at 0 h, parasitemia reduction on day 3 post-infection): 100%; IC50 ([5]; chloroquine-resistant K1 strain, 72 h incubation, read-out: IC50 (ng/ml) K1): 0.36 ng/mL (≈ 1.03 nM); IC50 ([6]; chloroquine-sensitive NF54 strain, 72 h incubation, read-out: IC50 (ng/ml) NF54): 0.29 ng/mL (≈ 0.827 nM); Activity (%) (P. berghei ANKA strain [7]; po, 1 mg/kg, 96 h): 87%; Cures (P. berghei ANKA strain [7]; po, 3 mg/kg, 720 h): 0\5; Survival (days) 1 × 30 mg/kg p.o. SSV (P. berghei ANKA strain [8]; single 30 mg/kg po on day 1 post-infection): 14 days; Activity (%) 1 × 30 mg/kg p.o. SSV (P. berghei ANKA strain [8]; single 30 mg/kg po on day 1 post-infection, parasitemia reduction on day 4): 99.97%; Cures 1 × 30 mg/kg p.o. SSV (P. berghei ANKA strain [8]; single 30 mg/kg po, cure = survival to day 30 post-infection): 0/5 |
| c1ccc(C[C@H]2CC[C@]3(CC2)OOC2(O3)C3CC4CC(C3)CC2C4)cc1 (stereo partly shown) [OZ156] | > 60 | 0 | 6 | – | – | 10.3 | 98.8 | – | – | – | – | – | Survival (days) 10 mg/kg po ([4]; single 10 mg/kg po in 3% ethanol and 7% Tween 80, untreated 6-7 days): 17.0 days; Activity (%) 10 mg/kg po ([4]; single 10 mg/kg po in 3% ethanol and 7% Tween 80 on day 1 post-infection, percent reduction in parasitemia on day 3): 99.98%; Survival (days) 10 mg/kg sc ([4]; single 10 mg/kg sc in 3% ethanol and 7% Tween 80, untreated 6-7 days): 19.7 days; Activity (%) 10 mg/kg sc ([4]; single 10 mg/kg sc in 3% ethanol and 7% Tween 80 on day 1 post-infection, percent reduction in parasitemia on day 3): 99.98%; IC50 ([5]; K1, 72 h, read-out: IC50 (ng/ml) K1, chloroquine-resistant K1 strain, 72 h incubation): 2.1 ng/mL (≈ 5.92 nM); ED50 ([9]; Plasmodium berghei, po): 1.3 mg/kg; ED90 [9]: 2.6 mg/kg; ED99 [9]: 4.7 mg/kg; IC50 ([6]; NF54, 72 h, read-out: IC50 (ng/ml) NF54, chloroquine-sensitive NF54 strain, 72 h incubation): 2.1 ng/mL (≈ 5.92 nM) |
| c1cc(OC[C@H]2CC[C@]3(CC2)OO[C@]2(O3)C3CC4CC(C3)CC2C4)ccn1 [OZ301] | – | – | – | 8.4 | 97 | 11.8 | 100 | 8.8 | 23 | 100 | >30 | 100 | Cured infected mice at the 3×3 mg/kg dose (P. berghei ANKA strain [7]; 3 mg/kg po (SSV) on days 1, 2, 3 post-infection): 1/5; Activity (%) (P. berghei ANKA strain [7]; 3 × 1 mg/kg p.o. SSV on days 1, 2, 3 post-infection, percent reduction of parasitemia vs control on day 4): 58% |
